From patent US8703701B2 (Indiana University Research and Technology Corporation, priority 2009, dated 2014) come the findings set out here.

One test addresses T1, GLP-1 receptor (Homo sapiens, UniProt P43220).
T1 construct: expressed in transfected cells; host or cells: HEK293
The test is described as follows: cAMP induction, firefly luciferase reporter assay, GLP-1 receptor. Type of test: cell-based. The note with it: for Activity at GLP-1 Receptor % Relative Activity: compared to native GLP-1; for EC50: Activity at GLP-1 Receptor EC50 [pM]. How it is done:
(§1) The ability of each peptide to induce cAMP was measured in a firefly luciferase-based reporter assay.
(§2) At the end of the incubation, 100 μL of LucLite luminescence substrate reagent (Perkin Elmer, Wellesley, Mass.) were added to each well. The plate was shaken briefly, incubated 10 min in the dark and light output was measured on MicroBeta-1450 liquid scintillation counter (Perkin-Elmer, Wellesley, Mass.).
A general note: In a reporter assay the amount or activity of a reporter protein is the signal.

The next test addresses T2, glucagon receptor (Homo sapiens, UniProt P47871).
T2 construct: expressed in transfected cells; host or cells: HEK293
The test can be described thus: cAMP induction, firefly luciferase reporter assay, glucagon receptor. The note with it: for Activity at Glucagon Receptor % Relative Activity: compared to native glucagon. Type of test: cell-based. How it is done:
as §1, §2

Starred links: 1 amine or outer side, 2 acyl side, 3 side chain; linkers in the order of their positions; H or OH if unused. Non-standard residues stand in square brackets, D forms with d. Residues, ends and D or L forms follow the SMILES beside them. Groups on a side chain read outwards from the residue. *: point of attachment. Isobutyryl(2-imidazol-4-yl) = CC(C)(C(=O)*)c1c[nH]cn1; γGlu = O=C(O)[C@H](CCC(=O)[*:2])N[*:1]; Palmitoyl = CCCCCCCCCCCCCCCC(=O)*; Myristoyl = CCCCCCCCCCCCCC(=O)*; Aib = CC(C)(N)C(=O)O

T2 sequence (P47871 26-477): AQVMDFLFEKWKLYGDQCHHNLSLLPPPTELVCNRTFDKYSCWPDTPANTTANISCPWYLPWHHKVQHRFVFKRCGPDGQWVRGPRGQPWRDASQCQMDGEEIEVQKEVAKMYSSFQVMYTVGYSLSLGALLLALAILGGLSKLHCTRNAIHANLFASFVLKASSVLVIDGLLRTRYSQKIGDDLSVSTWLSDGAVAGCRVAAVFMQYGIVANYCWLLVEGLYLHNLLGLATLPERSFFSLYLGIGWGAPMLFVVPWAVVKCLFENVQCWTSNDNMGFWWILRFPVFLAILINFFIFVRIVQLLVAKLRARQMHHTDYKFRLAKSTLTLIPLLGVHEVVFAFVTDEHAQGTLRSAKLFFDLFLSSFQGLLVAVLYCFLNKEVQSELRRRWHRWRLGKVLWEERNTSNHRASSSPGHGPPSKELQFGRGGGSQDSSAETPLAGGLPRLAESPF
T1 sequence (P43220 24-463): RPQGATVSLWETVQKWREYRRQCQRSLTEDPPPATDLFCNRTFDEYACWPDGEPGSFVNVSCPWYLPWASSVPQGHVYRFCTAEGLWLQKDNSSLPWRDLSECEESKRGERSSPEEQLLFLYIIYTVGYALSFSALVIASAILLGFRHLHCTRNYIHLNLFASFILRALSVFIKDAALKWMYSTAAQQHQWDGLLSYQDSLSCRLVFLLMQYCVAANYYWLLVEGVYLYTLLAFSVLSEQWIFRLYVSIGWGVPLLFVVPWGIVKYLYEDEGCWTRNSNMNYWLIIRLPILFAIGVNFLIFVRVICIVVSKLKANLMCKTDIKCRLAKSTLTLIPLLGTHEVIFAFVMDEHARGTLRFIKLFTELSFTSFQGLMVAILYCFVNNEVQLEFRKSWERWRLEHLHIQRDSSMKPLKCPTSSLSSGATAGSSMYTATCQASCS

Turning to `CCCCCCCCCCCCCCCC(=O)N[C@@H](CCC(=O)NCCCC[C@H](NC(=O)[C@H](CC(=O)O)NC(=O)[C@H](CO)NC(=O)[C@@H](NC(=O)[C@H](Cc1ccccc1)NC(=O)[C@@H](NC(=O)CNC(=O)[C@H](CCC(N)=O)NC(=O)[C@@H](CO)NC(=O)[C@@H](N)Cc1c[nH]cn1)[C@@H](C)O)[C@@H](C)O)C(=O)N[C@@H](CO)C(=O)N[C@@H](CCCCN)C(=O)N[C@@H](Cc1ccc(O)cc1)C(=O)N[C@@H](CC(C)C)C(=O)N[C@@H](CC(=O)O)C(=O)NC(C)(C)C(=O)N[C@@H](CCCCN)C(=O)N[C@@H](CCCNC(=N)N)C(=O)N[C@@H](C)C(=O)N[C@@H](CCCCN)C(=O)N[C@@H](CCC(=O)O)C(=O)N[C@@H](Cc1ccccc1)C(=O)N[C@H](C(=O)N[C@@H](CS)C(=O)N[C@@H](Cc1c[nH]c2ccccc12)C(=O)N[C@@H](CC(C)C)C(=O)N[C@@H](CC(C)C)C(=O)N[C@@H](CC(=O)O)C(=O)N[C@H](C(N)=O)[C@@H](C)O)C(C)C)C(=O)O` [compound 62] (H-H[dS]QGTFTSDK([γGlu-Palmitoyl])SKYLD[Aib]KRAKEFVCWLLDT-NH2; N-terminus assumed), at GLP-1 receptor (Table 2B), the “Activity at GLP-1 Receptor % Relative Activity” value was 246%. On glucagon receptor (Table 2B), the “Activity at Glucagon Receptor % Relative Activity” value worked out at 113%.

As for `CCCCCCCCCCCCCCCC(=O)N[C@@H](CCC(=O)NCCCC[C@H](NC(=O)[C@H](CC(=O)O)NC(=O)[C@H](CO)NC(=O)[C@@H](NC(=O)[C@H](Cc1ccccc1)NC(=O)[C@@H](NC(=O)CNC(=O)[C@H](CCC(N)=O)NC(=O)[C@@H](CO)NC(=O)[C@@H](N)Cc1c[nH]cn1)[C@@H](C)O)[C@@H](C)O)C(=O)N[C@@H](CO)C(=O)N[C@@H](CCCCN)C(=O)N[C@@H](Cc1ccc(O)cc1)C(=O)N[C@@H](CC(C)C)C(=O)N[C@@H](CC(=O)O)C(=O)N[C@@H](CCC(=O)O)C(=O)N[C@@H](CCC(N)=O)C(=O)N[C@@H](C)C(=O)N[C@@H](C)C(=O)N[C@@H](CCCCN)C(=O)N[C@@H](CCC(=O)O)C(=O)N[C@@H](Cc1ccccc1)C(=O)N[C@H](C(=O)N[C@@H](CS)C(=O)N[C@@H](Cc1c[nH]c2ccccc12)C(=O)N[C@@H](CC(C)C)C(=O)N[C@@H](CC(C)C)C(=O)N[C@@H](CC(=O)O)C(=O)N[C@H](C(=O)N[C@@H](CCC(=O)O)C(N)=O)[C@@H](C)O)[C@@H](C)CC)C(=O)O` [compound 83], the “Activity at GLP-1 Receptor % Relative Activity” value at GLP-1 receptor (Table 3C) is recorded as 288%. The “Activity at Glucagon Receptor % Relative Activity” value on glucagon receptor (Table 3C) worked out at 61%.

For the molecule `CC(C)C[C@H](NC(=O)[C@H](CC(C)C)NC(=O)[C@H](Cc1c[nH]c2ccccc12)NC(=O)[C@H](CS)NC(=O)[C@@H](NC(=O)[C@H](Cc1ccccc1)NC(=O)[C@H](CCC(=O)O)NC(=O)[C@H](CCCCN)NC(=O)[C@H](C)NC(=O)[C@H](CCCNC(=N)N)NC(=O)[C@H](CCCCN)NC(=O)[C@H](CCC(=O)O)NC(=O)[C@H](CC(=O)O)NC(=O)[C@H](CC(C)C)NC(=O)[C@H](Cc1ccc(O)cc1)NC(=O)[C@H](CCCCN)NC(=O)[C@H](CO)NC(=O)[C@H](Cc1ccc(O)cc1)NC(=O)[C@H](CC(=O)O)NC(=O)[C@H](CO)NC(=O)[C@@H](NC(=O)[C@H](Cc1ccccc1)NC(=O)[C@@H](NC(=O)CNC(=O)[C@H](CCC(N)=O)NC(=O)[C@@H](CO)NC(=O)[C@@H](N)Cc1c[nH]cn1)[C@@H](C)O)[C@@H](C)O)C(C)C)C(=O)N[C@@H](CC(=O)O)C(=O)NCC(=O)NCC(=O)N1CCC[C@H]1C(=O)N[C@@H](CO)C(=O)N[C@@H](CO)C(=O)NCC(=O)N[C@@H](C)C(=O)N1CCC[C@H]1C(=O)N1CCC[C@H]1C(=O)N1CCC[C@H]1C(=O)N[C@@H](CO)C(N)=O` [compound 61] (H-H[dS]QGTFTSDYSKYLDEKRAKEFVCWLLDGGPSSGAPPPS-NH2; N-terminus assumed), the “Activity at GLP-1 Receptor % Relative Activity” value at GLP-1 receptor (Table 2B) is reported as 39%. The “Activity at Glucagon Receptor % Relative Activity” value on glucagon receptor (Table 2B) is reported as 88%.

`CCCCCCCCCCCCCCCC(=O)N[C@@H](CCC(=O)N[C@@H](CCC(=O)NCCCC[C@H](NC(=O)[C@H](CC(=O)O)NC(=O)[C@H](CO)NC(=O)[C@@H](NC(=O)[C@H](Cc1ccccc1)NC(=O)[C@@H](NC(=O)CNC(=O)[C@H](CCC(N)=O)NC(=O)C(C)(C)NC(=O)[C@@H](N)Cc1c[nH]cn1)[C@@H](C)O)[C@@H](C)O)C(=O)N[C@@H](CO)C(=O)N[C@@H](CCCCN)C(=O)N[C@@H](Cc1ccc(O)cc1)C(=O)N[C@@H](CC(C)C)C(=O)N[C@@H](CC(=O)O)C(=O)NC(C)(C)C(=O)N[C@@H](CCCNC(=N)N)C(=O)N[C@@H](C)C(=O)N[C@@H](C)C(=O)N[C@@H](CCC(N)=O)C(=O)N[C@@H](CC(=O)O)C(=O)N[C@@H](Cc1ccccc1)C(=O)N[C@H](C(=O)N[C@@H](CCC(N)=O)C(=O)N[C@@H](Cc1c[nH]c2ccccc12)C(=O)N[C@@H](CC(C)C)C(=O)N[C@@H](CC(C)C)C(=O)N[C@@H](CC(=O)O)C(=O)N[C@H](C(N)=O)[C@@H](C)O)C(C)C)C(=O)O)C(=O)O` [compound 49]: at GLP-1 receptor (Table 3A), the half-maximal effective concentration (EC50) (in general, the concentration that produces a half-maximal response) worked out at 6 pM and the “Activity at GLP-1 Receptor % Relative Activity” value is given as 375%. Further, the “Activity at Glucagon Receptor % Relative Activity” value on glucagon receptor (Table 3A) is given as 511%.

With `CCCCCCCCCCCCCCCC(=O)N[C@@H](CCC(=O)NCCCC[C@H](NC(=O)[C@H](CC(=O)O)NC(=O)[C@H](CO)NC(=O)[C@@H](NC(=O)[C@H](Cc1ccccc1)NC(=O)[C@@H](NC(=O)CNC(=O)[C@H](CCC(N)=O)NC(=O)[C@H](CO)NC(=O)C(C)(C)c1c[nH]cn1)[C@@H](C)O)[C@@H](C)O)C(=O)N[C@@H](CO)C(=O)N[C@@H](CCCCN)C(=O)N[C@@H](Cc1ccc(O)cc1)C(=O)N[C@@H](CC(C)C)C(=O)N[C@@H](CC(=O)O)C(=O)N[C@@H](CCC(=O)O)C(=O)N[C@@H](CCC(N)=O)C(=O)N[C@@H](C)C(=O)N[C@@H](C)C(=O)N[C@@H](CCCCN)C(=O)N[C@@H](CCC(=O)O)C(=O)N[C@@H](Cc1ccccc1)C(=O)N[C@H](C(=O)N[C@@H](CS)C(=O)N[C@@H](Cc1c[nH]c2ccccc12)C(=O)N[C@@H](CC(C)C)C(=O)N[C@@H](CC(C)C)C(=O)N[C@@H](CC(=O)O)C(=O)N[C@H](C(N)=O)[C@@H](C)O)[C@@H](C)CC)C(=O)O` [compound 54] ({Isobutyryl(2-imidazol-4-yl)}-SQGTFTSDK([γGlu-Palmitoyl])SKYLDEQAAKEFICWLLDT-NH2), on GLP-1 receptor (Table 5), the “Activity at GLP-1 Receptor % Relative Activity” value amounted to 42%. Further, at glucagon receptor (Activity at Glucagon Receptor EC50 [nM], Table 5), the concentration giving a half-maximal response (EC50) amounted to 0.107 nM. In addition, the “Activity at Glucagon Receptor % Relative Activity” value at glucagon receptor (Table 5) is listed as 35%.

As to `CSCC[C@H](NC(=O)[C@H](CC(C)C)NC(=O)[C@H](Cc1c[nH]c2ccccc12)NC(=O)[C@H](CCC(N)=O)NC(=O)[C@@H](NC(=O)[C@H](Cc1ccccc1)NC(=O)[C@H](CC(=O)O)NC(=O)[C@H](CCCCN)NC(=O)[C@H](C)NC(=O)[C@H](CCCNC(=N)N)NC(=O)[C@H](CCCNC(=N)N)NC(=O)[C@H](CCC(=O)O)NC(=O)[C@H](CC(=O)O)NC(=O)[C@H](CC(C)C)NC(=O)[C@H](Cc1ccc(O)cc1)NC(=O)[C@H](CCCCN)NC(=O)[C@H](CO)NC(=O)[C@H](Cc1ccc(O)cc1)NC(=O)[C@H](CC(=O)O)NC(=O)[C@H](CO)NC(=O)[C@@H](NC(=O)[C@H](Cc1ccccc1)NC(=O)[C@@H](NC(=O)CNC(=O)[C@H](CCC(N)=O)NC(=O)[C@H](CO)NC(=O)[C@@H](N)Cc1c[nH]cn1)[C@@H](C)O)[C@@H](C)O)C(C)C)C(=O)N[C@@H](CC(N)=O)C(=O)N[C@H](C(N)=O)[C@@H](C)O` [compound 67], at GLP-1 receptor (Table 2B), the “Activity at GLP-1 Receptor % Relative Activity” value is 47%. In addition, the “Activity at Glucagon Receptor % Relative Activity” value at glucagon receptor (Table 2B) was 93%.

Consider `CCCCCCCCCCCCCC(=O)N[C@@H](CCC(=O)N[C@@H](CCC(=O)NCCCC[C@H](NC(=O)[C@H](CC(=O)O)NC(=O)[C@H](CO)NC(=O)[C@@H](NC(=O)[C@H](Cc1ccccc1)NC(=O)[C@@H](NC(=O)CNC(=O)[C@H](CCC(N)=O)NC(=O)C(C)(C)NC(=O)[C@@H](N)Cc1c[nH]cn1)[C@@H](C)O)[C@@H](C)O)C(=O)N[C@@H](CO)C(=O)N[C@@H](CCCCN)C(=O)N[C@@H](Cc1ccc(O)cc1)C(=O)N[C@@H](CC(C)C)C(=O)N[C@@H](CC(=O)O)C(=O)NC(C)(C)C(=O)N[C@@H](CCCNC(=N)N)C(=O)N[C@@H](C)C(=O)N[C@@H](C)C(=O)N[C@@H](CCC(N)=O)C(=O)N[C@@H](CC(=O)O)C(=O)N[C@@H](Cc1ccccc1)C(=O)N[C@H](C(=O)N[C@@H](CCC(N)=O)C(=O)N[C@@H](Cc1c[nH]c2ccccc12)C(=O)N[C@@H](CC(C)C)C(=O)N[C@@H](CCSC)C(=O)N[C@@H](CC(=O)O)C(=O)N[C@H](C(N)=O)[C@@H](C)O)C(C)C)C(=O)O)C(=O)O` [compound 70] (H-H[Aib]QGTFTSDK([γGlu-γGlu-Myristoyl])SKYLD[Aib]RAAQDFVQWLMDT-NH2; N-terminus assumed), for which the EC50 is 4 pM on GLP-1 receptor (Table 3B) and 0.006 nM on glucagon receptor (Activity at Glucagon Receptor EC50 [pM], Table 3B). Besides, at GLP-1 receptor (Table 3B), the “Activity at GLP-1 Receptor % Relative Activity” value was 500%. Further, the “Activity at Glucagon Receptor % Relative Activity” value on glucagon receptor (Table 3B) is listed as 709%.
